Where “and” joins values, the source holds several entries; their conditions need not be identical. Equal entries are not always repeated. Toxic doses and inconclusive results are not listed. Rule for the calls: active = survival T/C of 150% or more; inactive = T/C below 125% in these data.
Tested on: P388 leukemia ip, CD2F1 mice, survival T/C
Test: NCI In Vivo Anticancer Drug Screen. Data for tumor model P388 Leukemia (intraperitoneal) in CD2F1 (CDF1) mice
Settings: endpoint: median survival time, higher = longer survival
In short: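 Mice carrying the transplanted tumor received test compound or vehicle. Survival was recorded in each group, and the value is the treated-group measurement divided by that of the vehicle-treated control group.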

[1] = dose: 100.0 mg/kg/injection, schedule: Q01DX001 (ip), vehicle: saline with Tween-80
[2] = dose: 200.0 mg/kg/injection, schedule: Q01DX001 (ip), vehicle: saline with Tween-80
[3] = dose: 50.0 mg/kg/injection, schedule: Q01DX009 (ip), vehicle: saline with Tween-80
[4] = dose: 100.0 mg/kg/injection, schedule: Q01DX009 (ip), vehicle: saline with Tween-80
[5] = dose: 200.0 mg/kg/injection, schedule: Q01DX009 (ip), vehicle: saline with Tween-80
[6] = dose: 50.0 mg/kg/injection, schedule: Q01DX005 (ip), vehicle: saline with Tween-80
[7] = dose: 100.0 mg/kg/injection, schedule: Q01DX005 (ip), vehicle: saline with Tween-80

Measured: T/C

O=C1C(C(=Nc2ccc(Cl)cc2)c2ccccc2)=C(O)c2ccccc21
inactive: dose: 25.0 mg/kg/injection, schedule: Q04DX002 (ip), vehicle: saline with Tween-80 95 % of control | dose: 50.0 mg/kg/injection, schedule: Q04DX002 (ip), vehicle: saline with Tween-80 95 % of control | dose: 100.0 mg/kg/injection, schedule: Q04DX002 (ip), vehicle: saline with Tween-80 95 % of control

Clc1ccc2c(NCCCCCCCCNc3c4ccccc4nc4cc(Cl)ccc34)c3ccccc3nc2c1
inactive: dose: 0.63 mg/kg/injection, schedule: Q01DX009 (ip), vehicle: other 112 % of control | dose: 1.25 mg/kg/injection, schedule: Q01DX009 (ip), vehicle: other 108 % of control | dose: 2.5 mg/kg/injection, schedule: Q01DX009 (ip), vehicle: other 110 % of control | dose: 3.75 mg/kg/injection, schedule: Q01DX009 (ip), vehicle: other 108 % of control | dose: 5.0 mg/kg/injection, schedule: Q01DX009 (ip), vehicle: other 112 % of control | dose: 7.5 mg/kg/injection, schedule: Q01DX009 (ip), vehicle: other 110 % of control | dose: 10.0 mg/kg/injection, schedule: Q01DX009 (ip), vehicle: other 110 % of control | dose: 15.0 mg/kg/injection, schedule: Q01DX009 (ip), vehicle: other 112 % of control | dose: 20.0 mg/kg/injection, schedule: Q01DX009 (ip), vehicle: other 120 % of control

CN(C)CCCNC(=O)c1ccc2c(c1)C(=O)c1ccccc1C2=O
inactive: dose: 100.0 mg/kg/injection, schedule: Q04DX003 (ip), vehicle: water 107 % of control | dose: 200.0 mg/kg/injection, schedule: Q04DX003 (ip), vehicle: water 115 % of control

COc1ccc2c(c1OC)C(N1CCc3cc4c(cc3C1=O)OCO4)OC2=O (stereo not drawn)
inactive: dose: 12.5 mg/kg/injection, schedule: Q01DX001 (ip), vehicle: saline + alcohol 89 % of control | dose: 25.0 mg/kg/injection, schedule: Q01DX001 (ip), vehicle: saline + alcohol 87 % of control | dose: 50.0 mg/kg/injection, schedule: Q01DX001 (ip), vehicle: saline + alcohol 87 % of control

O=C1Nc2ccccc2C1NC(=S)Nc1ccc(Cl)cc1 (stereo not drawn)
inactive: [1] 87 % of control | [2] 86 % of control

COc1ccc(/C=N/Nc2ccccc2)cc1
inactive: [3] 99 % of control | [4] 92 % of control | [5] 99 % of control | dose: 400.0 mg/kg/injection, schedule: Q01DX009 (ip), vehicle: saline with Tween-80 94 % of control

CS(=O)(=O)O/C=C1/CCOC1=O
inactive: dose: 3.13 mg/kg/injection, schedule: Q01DX009 (ip), vehicle: water 107 % of control | dose: 6.25 mg/kg/injection, schedule: Q01DX009 (ip), vehicle: water 104 % of control | dose: 12.5 mg/kg/injection, schedule: Q01DX009 (ip), vehicle: water 102 % of control and 108 % of control | dose: 25.0 mg/kg/injection, schedule: Q01DX009 (ip), vehicle: water 120 % of control

O=Cc1ccco1
inactive: [3] 99 % of control | [4] 101 % of control | [5] 118 % of control

Cc1c([N+](=O)[O-])c(=O)[nH]n1C
inactive: [3] 96 % of control | [4] 88 % of control | [5] 89 % of control

COC1NC(=S)N(Cc2ccccc2)C1(C)C (stereo not drawn)
inactive: dose: 50.0 mg/kg/injection, schedule: Q01DX009 (ip), vehicle: suspension in saline 102 % of control | dose: 100.0 mg/kg/injection, schedule: Q01DX009 (ip), vehicle: suspension in saline 97 % of control | dose: 200.0 mg/kg/injection, schedule: Q01DX009 (ip), vehicle: suspension in saline 93 % of control

O=C1N(c2ccccc2)C(=O)N1c1ccccc1
inactive: dose: 25.0 mg/kg/injection, schedule: Q01DX009 (ip), vehicle: saline with Tween-80 93 % of control | [3] 99 % of control | [4] 108 % of control | [5] 97 % of control

CC(C)C(=O)N1CCCCCN1C(=O)C(C)C
inactive: dose: 100.0 mg/kg/injection, schedule: Q01DX001 (ip), vehicle: suspension in saline 100 % of control | dose: 200.0 mg/kg/injection, schedule: Q01DX001 (ip), vehicle: suspension in saline 95 % of control | dose: 400.0 mg/kg/injection, schedule: Q01DX001 (ip), vehicle: suspension in saline 94 % of control

C=CCNc1ccc(OC)cc1
inactive: dose: 50.0 mg/kg/injection, schedule: Q04DX003 (ip), vehicle: saline with Tween-80 100 % of control | dose: 100.0 mg/kg/injection, schedule: Q04DX003 (ip), vehicle: saline with Tween-80 100 % of control | dose: 200.0 mg/kg/injection, schedule: Q04DX003 (ip), vehicle: saline with Tween-80 100 % of control

CC(C)=NOc1ccc([N+](=O)[O-])cc1[N+](=O)[O-]
inactive: [3] 96 % of control | [4] 108 % of control

CCC#CC(=O)O
inactive: dose: 25.0 mg/kg/injection, schedule: Q01DX009 (ip), vehicle: saline 96 % of control | dose: 50.0 mg/kg/injection, schedule: Q01DX009 (ip), vehicle: saline 95 % of control and 96 % of control

O=S(=O)(OCCCl)c1c(Cl)c(Cl)c(Cl)c(Cl)c1Cl
inactive: dose: 12.5 mg/kg/injection, schedule: Q01DX005 (ip), vehicle: saline with Tween-80 95 % of control | dose: 25.0 mg/kg/injection, schedule: Q01DX005 (ip), vehicle: saline with Tween-80 92 % of control | [6] 92 % of control and 93 % of control | [7] 96 % of control

CCOC(=O)Nc1cc(NC/C(=N/O)c2ccc([N+](=O)[O-])cc2)c([N+](=O)[O-])c(N)n1
inactive: dose: 50.0 mg/kg/injection, schedule: Q01DX001 (ip), vehicle: saline with Tween-80 92 % of control | [1] 92 % of control | [2] 89 % of control

CC(=O)ONC(=O)CSc1nn2cc(-c3ccccc3)nc2s1
inactive: [6] 103 % of control | [7] 97 % of control | dose: 200.0 mg/kg/injection, schedule: Q01DX005 (ip), vehicle: saline with Tween-80 95 % of control

NC(CSc1nc2ccccn2c1[N+](=O)[O-])C(=O)O (stereo not drawn)
inactive: dose: 12.5 mg/kg/injection, schedule: Q01DX009 (ip), vehicle: Klucel (hydroxypropylcellulose) (HPC) 98 % of control | dose: 25.0 mg/kg/injection, schedule: Q01DX009 (ip), vehicle: Klucel (hydroxypropylcellulose) (HPC) 100 % of control | dose: 50.0 mg/kg/injection, schedule: Q01DX009 (ip), vehicle: Klucel (hydroxypropylcellulose) (HPC) 99 % of control and 100 % of control

— PubChem BioAssay AID330 (DTP/NCI, 2004)
